Structures can show the parent of a compound that is named as a salt.
Experiments:
collagenase = details: literature or U.S. Pat. No. 4,297,372; cited from earlier work
[1] = In vitro binding (competition) assay with 14C reference compound on tooth powder; details: 1 mg tooth powder, PBS, 60 minutes at 37° C.; relative to reference 6,6'-[ureylenebis(m-phenylenecarbonylimino)] analog; >1 = less efficient
Description: Using (radioactive) ^14 C-6,6'-[ureylenebis(m-phenylenecarbonylimino)]bis[4-hydroxy-2-naphthalenesulfonic acid]disodium salt, an in vitro binding (competition) assay procedure has been established which involves an insoluble substrate such as tooth powder which will bind the ^14 C-6,6'-[ureylenebis(m-phenylenecarbonylimino)]bis[4-hydroxy-2-naphthalenesulfonic acid]disodium salt. The amount of ^14 C-6,6'-[ureylenebis(m-phenylenecarbonylimino)]bis[4-hydroxy-2-naphthalenesulfonic acid]disodium salt bound is determined by washing away the unbound radioactive compound and counting CPM (counts per minute) of the insoluble tooth powder/^14 C-6,6'-[ureylenebis(m-phenylenecarbonylimino)]bis[4-hydroxy-2-naphthalenesulfonic acid]disodium salt complex. […] The inhibiting effect of the test compound on binding compared to non-radioactive 6,6'-[ureylenebis(m-phenylenecarbonylimino)]bis[4-hydroxy-2-naphthalenesulfonic acid]disodium salt was determined as follows: A one mg amount of tooth powder was incubated in one ml of phosphate buffered saline (PBS) with 10 μg of ^14 C-6,6'-[ureylenebis(m-phenylenecarbonylimino)]bis[4-hydroxy-2-naphthalenesulfonic acid]disodium salt and varying dose amounts (ranging from 0 to 2 mg) of the same cold (non-radioactive) compound. […]

[2] = molecular target: T1, human skin fibroblast collagenase (Homo sapiens, UniProt P03956); test: Collagenase Assay, Test Code 006 (degradation of radiolabeled native collagen fibrils); type: biochemical; details: test conc.: 30 μg/ml; ratio of weight (μg) for 50% inhibition vs reference 6,6'-[ureylenebis(m-phenylenecarbonylimino)] analog; >1 = less active
T1 construct: endogenous in cells; host or cells: human skin fibroblasts
T1 sequence (P03956 100-469): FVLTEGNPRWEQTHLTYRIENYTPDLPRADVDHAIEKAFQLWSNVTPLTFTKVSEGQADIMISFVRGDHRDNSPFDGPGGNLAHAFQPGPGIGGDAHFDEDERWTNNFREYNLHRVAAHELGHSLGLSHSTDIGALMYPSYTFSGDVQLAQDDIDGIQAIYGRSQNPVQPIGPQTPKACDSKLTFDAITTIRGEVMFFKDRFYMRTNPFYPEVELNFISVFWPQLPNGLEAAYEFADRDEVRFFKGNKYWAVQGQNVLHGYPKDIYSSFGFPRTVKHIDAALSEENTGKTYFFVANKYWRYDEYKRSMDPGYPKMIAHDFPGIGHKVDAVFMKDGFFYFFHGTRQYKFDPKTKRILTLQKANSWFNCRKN
Method: (i) Collagenase Assay--Test Code 006
A collagenase assay was performed by a modification of the method of Harper, et al., Biochem., 10, 3035 (1971). In a typical assay (total volume of 0.45 ml), 100 μl of the activated enzyme was added to the ^14 C-labeled collagen fibrils (250 μl) followed by 100 μl of 50 mM cacodylate, pH 7.4, containing 5 mM calcium chloride. After incubation at 37° C. for 16 hours, the tubes were centrifuged in a Beckman microfuge for five minutes at full speed. An aliquot (200 μl) of the supernatant, representing collagenase digestion products of the fibril, was assayed for radioactivity. The effect of the test compound on collagen degradation by collagenase was examined as follows:
Varying concentrations of the test compound (in distilled water) were added to the assay tubes containing active collagenase (total volume 450 μl) and after 16 hours the amount of radioactivity in the supernatant was determined. Appropriate blanks and trypsin controls were run in parallel.
The result is expressed as an ID50 collagenase value which represents a ratio of the weight (μg) of the representative compound required for 50% inhibition of collagenase over the weight (μg) of 6,6'-[ureylenebis(m-phenylenecarbonylimino)]bis[4-hydroxy-2-naphthalenesulfonic acid]disodium salt required for 50% inhibition of collagenase.

[3] = Binding to insoluble collagenous structures; details: teeth, dentin, gingiva and the like
corneal ulcerations = details: directly applied; alkali burned rabbit; cited from earlier work
[4] = compared with cysteine; cited from earlier work
corneal ulceration = details: human; cited from earlier work

Row | Compound | collagenase inhibition / inhibition of collagen degradation (collagenase) | other results
1 | O[C@H](CS)[C@H](O)CS (racemic) [dithiothreitol] | collagenase inhibitors | –
2 | c1cnc2c(c1)ccc1cccnc12 [1,10-phenanthroline] | collagenase inhibitors | –
3 | O=C(Nc1ccc(S(=O)(=O)Nc2ccc3cc(S(=O)(=O)O)cc(O)c3c2)cc1)Nc1ccc(S(=O)(=O)Nc2ccc3cc(S(=O)(=O)O)cc(O)c3c2)cc1 [6,6'-[Ureylenebis(p-phenylenesulfonylimino)]bis-[4-hydroxy-2-naphthalenesulfonic acid]disodium salt] | – | ID50 Binding Ratio [1]: 1.55; ID50 Collagenase Ratio [2]: 1.73
4 | O=C(Nc1cccc(C(=O)Nc2ccc3cc(S(=O)(=O)O)cc(O)c3c2)c1)Nc1cccc(C(=O)Nc2ccc3cc(S(=O)(=O)O)cc(O)c3c2)c1 [6,6'-[ureylenebis(m-phenylenecarbonylimino)]bis[4-hydroxy-2-naphthalenesulfonic acid]disodium salt] | inhibitor of the degradation of collagen | reversibility and saturability of binding [3]: saturable and reversible
5 | O=C([O-])CN(CCN(CC(=O)[O-])CC(=O)[O-])CC(=O)[O-].[Ca+2].[Ca+2] [Calcium ethylenediaminetetraacetate] | – | frequency of corneal ulceration (corneal ulcerations): reduce the frequency of ulceration
6 | Cc1ccc(C(=O)Nc2ccc(S(=O)(=O)O)c3cc(S(=O)(=O)O)cc(S(=O)(=O)O)c23)cc1NC(=O)c1cccc(NC(=O)Nc2cccc(C(=O)Nc3cc(C(=O)Nc4ccc(S(=O)(=O)O)c5cc(S(=O)(=O)O)cc(S(=O)(=O)O)c45)ccc3C)c2)c1 [Suramin] | not inhibiting the action of collagenase | –
7 | CC(=O)N[C@@H](CS)C(=O)O [acetylcysteine] | – | stability [4]: greater stability; frequency of corneal ulceration (corneal ulcerations): reduce the frequency of ulceration; treatment of acute and chronic corneal ulceration (corneal ulceration): effective in the treatment of acute and chronic corneal ulceration
8 | N[C@@H](CS)C(=O)O [cysteine] | collagenase inhibitors | treatment of acute and chronic corneal ulceration (corneal ulceration): effective in the treatment of acute and chronic corneal ulceration
9 | Cc1cc(-c2ccc(/N=N/c3c(S(=O)(=O)O)cc4cc(S(=O)(=O)O)cc(N)c4c3O)c(C)c2)ccc1/N=N/c1c(S(=O)(=O)O)cc2cc(S(=O)(=O)O)cc(N)c2c1O [trypan blue] | inhibiting the activity of collagenase | –
10 | sodium auriothiomalate | collagenase inhibitors | –
11 | α2 -macroglobulin: serum component; naturally occurring collagenase inhibitor | collagenase inhibitors | –
